{"source": "patent US20150250782A1", "about": "“Methods and Compositions for Hypotensive Resuscitation” (Pharmazz, Inc., priority 2012, published 2015)", "key": {"hemorrhaged rats": {"test_system": "hemorrhaged rats", "test": "Initial experiments in hemorrhaged rats with 0.45 mg/kg centhaquin", "format": "in vivo, rat", "procedure": "Initial experiments in hemorrhaged rats were performed with a 0.45 mg/kg dose of centhaquin. […] Centhaquin (0.45 mg/kg) produced a decrease in HR (beats/min) from 368±12 at hemorrhage, to 306±6, 309±6 and 274±11 at 30, 60 and 120 min, respectively, following resuscitation; cardiac output (mL) increased from 32±6 at hemorrhage, to 77±3, 74±4 and 62±5 at 30, 60 and 120 min, respectively, following resuscitation; while systemic vascular resistance (dynes*sec/cm5) was 84±4 at hemorrhage, and fell to 39±9, 42±9 and 45±6 at 30, 60 and 120 min, respectively, following resuscitation."}, "α2 adrenergic receptors": {"test_system": "α2 adrenergic receptors", "test": "Centhaquin resuscitation with and without α2 adrenergic antagonists: arterial blood hematocrit, pH, gases, electrolytes, lactate", "format": "in vivo, rat", "design": "pCO2 / pO2 / Na+ / K+ / Ca++ / Lactate: unit not given beside the values"}, "[1]": {"test_system": "isolated perfused rabbit heart", "details": "Bhatnagar, Pande et al. 1985; cited from earlier work"}, "dog femoral artery": {"test_system": "dog femoral artery", "details": "10 and 20 μg locally into femoral artery; Srimal, Mason et al. 1990; cited from earlier work"}, "[2]": {"test_system": "urethane anesthetized rats and conscious freely moving cats and rats", "details": "0.05 to 0.2 mg/kg, iv; Srimal, Gulati et al. 1990; cited from earlier work"}, "[3]": {"test_system": "release of norepinephrine", "details": "0.1, 1.0 and 10.0 μg/ml; Bhatnagar, Pande et al. 1985; cited from earlier work"}, "[4]": {"details": "120 min following resuscitation"}}}
{"smiles": "Cc1cccc(N2CCN(CCc3ccc4ccccc4n3)CC2)c1", "note": "[centhaquin, 2-[2-(4-(3-methyphenyl)-1-piperazinyl)ethyl]-quinoline]", "values": [{"measurement": "HR", "setting": "hemorrhaged rats; 30 min following resuscitation", "value": "306±6", "unit": "beats/min"}, {"measurement": "MAP", "setting": "hemorrhaged rats; 30 min following resuscitation", "value": "38±4", "unit": "mmHg"}, {"measurement": "cardiac output", "setting": "hemorrhaged rats; 30 min following resuscitation", "value": "77 ± 3", "unit": "mL"}, {"measurement": "systemic vascular resistance", "setting": "hemorrhaged rats; 30 min following resuscitation", "value": "39±9", "unit": "dynes*sec/cm5"}, {"measurement": "HR", "setting": "hemorrhaged rats; 60 min following resuscitation", "value": "309±6", "unit": "beats/min"}, {"measurement": "MAP", "setting": "hemorrhaged rats; 60 min following resuscitation", "value": "39±4", "unit": "mmHg"}, {"measurement": "cardiac output", "setting": "hemorrhaged rats; 60 min following resuscitation", "value": "74 ± 4", "unit": "mL"}, {"measurement": "systemic vascular resistance", "setting": "hemorrhaged rats; 60 min following resuscitation", "value": "42±9", "unit": "dynes*sec/cm5"}, {"measurement": "HR", "setting": "hemorrhaged rats; [4]", "value": "274±11", "unit": "beats/min"}, {"measurement": "MAP", "setting": "hemorrhaged rats; [4]", "value": "35±4", "unit": "mmHg"}, {"measurement": "cardiac output", "setting": "hemorrhaged rats; [4]", "value": "62 ± 5", "unit": "mL"}, {"measurement": "systemic vascular resistance", "setting": "hemorrhaged rats; [4]", "value": "45±6", "unit": "dynes*sec/cm5"}, {"measurement": "HR", "setting": "hemorrhaged rats; at hemorrhage", "value": "368±12", "unit": "beats/min"}, {"measurement": "cardiac output", "setting": "hemorrhaged rats; at hemorrhage", "value": "32 ± 6", "unit": "mL"}, {"measurement": "systemic vascular resistance", "setting": "hemorrhaged rats; at hemorrhage", "value": "84±4", "unit": "dynes*sec/cm5"}, {"measurement": "Ca++", "setting": "α2 adrenergic receptors; Baseline", "value": "1.15 ± 0.02"}, {"measurement": "Hematocrit", "setting": "α2 adrenergic receptors; Baseline", "value": "54.67 ± 2.03"}, {"measurement": "K+", "setting": "α2 adrenergic receptors; Baseline", "value": "2.73 ± 1.07"}, {"measurement": "Lactate", "setting": "α2 adrenergic receptors; Baseline", "value": "3.17 ± 0.24"}, {"measurement": "Na+", "setting": "α2 adrenergic receptors; Baseline", "value": "134.33 ± 0.88"}, {"measurement": "pCO2", "setting": "α2 adrenergic receptors; Baseline", "value": "46.33 ± 1.67"}, {"measurement": "pH", "setting": "α2 adrenergic receptors; Baseline", "value": "7.34 ± 0.01"}, {"measurement": "pO2", "setting": "α2 adrenergic receptors; Baseline", "value": "118.33 ± 6.77"}, {"measurement": "Ca++", "setting": "α2 adrenergic receptors; Hemorrhage", "value": "1.22 ± 0.00"}, {"measurement": "Hematocrit", "setting": "α2 adrenergic receptors; Hemorrhage", "value": "37.67 ± 2.33"}, {"measurement": "K+", "setting": "α2 adrenergic receptors; Hemorrhage", "value": "5.73 ± 0.30"}, {"measurement": "Lactate", "setting": "α2 adrenergic receptors; Hemorrhage", "value": "10.10 ± 0.70"}, {"measurement": "Na+", "setting": "α2 adrenergic receptors; Hemorrhage", "value": "124.33 ± 1.86"}, {"measurement": "pCO2", "setting": "α2 adrenergic receptors; Hemorrhage", "value": "27.33 ± 1.20"}, {"measurement": "pH", "setting": "α2 adrenergic receptors; Hemorrhage", "value": "7.24 ± 0.02"}, {"measurement": "pO2", "setting": "α2 adrenergic receptors; Hemorrhage", "value": "124.00 ± 4.73"}, {"measurement": "Ca++", "setting": "α2 adrenergic receptors; Resuscitation 30 min", "value": "1.17 ± 0.02"}, {"measurement": "Hematocrit", "setting": "α2 adrenergic receptors; Resuscitation 30 min", "value": "33.00 ± 1.53"}, {"measurement": "K+", "setting": "α2 adrenergic receptors; Resuscitation 30 min", "value": "4.73 ± 0.09"}, {"measurement": "Lactate", "setting": "α2 adrenergic receptors; Resuscitation 30 min", "value": "5.80 ± 0.32"}, {"measurement": "Na+", "setting": "α2 adrenergic receptors; Resuscitation 30 min", "value": "130.00 ± 0.08"}, {"measurement": "pCO2", "setting": "α2 adrenergic receptors; Resuscitation 30 min", "value": "33.00 ± 0.58"}, {"measurement": "pH", "setting": "α2 adrenergic receptors; Resuscitation 30 min", "value": "7.29 ± 0.01"}, {"measurement": "pO2", "setting": "α2 adrenergic receptors; Resuscitation 30 min", "value": "124.00 ± 4.51"}, {"measurement": "Ca++", "setting": "α2 adrenergic receptors; Resuscitation 60 min", "value": "1.18 ± 0.03"}, {"measurement": "Hematocrit", "setting": "α2 adrenergic receptors; Resuscitation 60 min", "value": "32.67 ± 1.76"}, {"measurement": "K+", "setting": "α2 adrenergic receptors; Resuscitation 60 min", "value": "4.60 ± 0.00"}, {"measurement": "Lactate", "setting": "α2 adrenergic receptors; Resuscitation 60 min", "value": "4.53 ± 0.38"}, {"measurement": "Na+", "setting": "α2 adrenergic receptors; Resuscitation 60 min", "value": "128.00 ± 1.00"}, {"measurement": "pCO2", "setting": "α2 adrenergic receptors; Resuscitation 60 min", "value": "33.33 ± 0.33"}, {"measurement": "pH", "setting": "α2 adrenergic receptors; Resuscitation 60 min", "value": "7.31 ± 0.01"}, {"measurement": "pO2", "setting": "α2 adrenergic receptors; Resuscitation 60 min", "value": "121.67 ± 4.63"}, {"measurement": "Ca++", "setting": "α2 adrenergic receptors; Resuscitation 120 min", "value": "1.18 ± 0.01"}, {"measurement": "Hematocrit", "setting": "α2 adrenergic receptors; Resuscitation 120 min", "value": "33.67 ± 2.03"}, {"measurement": "K+", "setting": "α2 adrenergic receptors; Resuscitation 120 min", "value": "5.17 ± 0.15"}, {"measurement": "Lactate", "setting": "α2 adrenergic receptors; Resuscitation 120 min", "value": "5.67 ± 0.22"}, {"measurement": "Na+", "setting": "α2 adrenergic receptors; Resuscitation 120 min", "value": "130.33 ± 0.33"}, {"measurement": "pCO2", "setting": "α2 adrenergic receptors; Resuscitation 120 min", "value": "29.00 ± 1.15"}, {"measurement": "pH", "setting": "α2 adrenergic receptors; Resuscitation 120 min", "value": "7.28 ± 0.01"}, {"measurement": "pO2", "setting": "α2 adrenergic receptors; Resuscitation 120 min", "value": "132.00 ± 6.69"}, {"measurement": "inotropic effect, ventricular contractions", "setting": "[1]", "value": "positive inotropic effect"}, {"measurement": "blood flow", "setting": "dog femoral artery", "value": "increased blood flow"}, {"measurement": "mean arterial pressure (MAP) and heart rate (HR)", "setting": "[2]", "value": "dose-dependent decrease"}, {"measurement": "norepinephrine release evoked by potassium chloride and dimethyl phenyl piperazinium chloride", "setting": "[3]", "value": "inhibited"}, {"measurement": "spontaneous release of norepinephrine", "setting": "[3]", "value": "initial increase, followed by a decrease"}]}
